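These data come from cells grown in 96-well plates and exposed to compound for 48 hours at five concentrations. At the GI50, growth is halved.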 Calls of active or inactive are those of the source. Cut-off read from the data, not from the text of the source: active = GI50 up to about 1.1 µM and inactive = higher.
What was measured:
Assay in all cases: NCI anticancer screen, dose series, 48 h
HCC 2998 = test system: HCC 2998
HCT-116 = test system: HCT-116
MDA-N = test system: MDA-N
A549 = test system: A549
TK-10 = test system: TK-10
MCF7 = test system: MCF7
SNB-75 = test system: SNB-75
RXF 393 = test system: RXF 393
ACHN = test system: ACHN
NCI-H23 = test system: NCI-H23
NCI/ADR-RES = test system: NCI/ADR-RES
HOP-92 = test system: HOP-92
T47D = test system: T47D
DU-145 = test system: DU-145
M14 = test system: M14
IGROV-1 = test system: IGROV-1
SK-OV-3 = test system: SK-OV-3
A498 = test system: A498
SW-620 = test system: SW-620
SK-MEL-28 = test system: SK-MEL-28
UO-31 = test system: UO-31
SF-295 = test system: SF-295
RPMI-8226 = test system: RPMI-8226
786-0 = test system: 786-0
MOLT-4 = test system: MOLT-4
KM12 = test system: KM12
CCRF-CEM = test system: CCRF-CEM
U-251 = test system: U-251
CAKI-1 = test system: CAKI-1
NCI-H460 = test system: NCI-H460
Hs-578T = test system: Hs-578T
OVCAR-5 = test system: OVCAR-5
HT-29 = test system: HT-29
HL-60 = test system: HL-60
OVCAR-4 = test system: OVCAR-4
Malme-3M = test system: Malme-3M
SK-MEL-5 = test system: SK-MEL-5
SF-268 = test system: SF-268
SR = test system: SR
UACC-257 = test system: UACC-257
SNB-19 = test system: SNB-19
OVCAR-8 = test system: OVCAR-8
HCT-15 = test system: HCT-15
COLO 205 = test system: COLO 205
EKVX = test system: EKVX
HOP-62 = test system: HOP-62
K562 = test system: K562
PC-3 = test system: PC-3
SN12C = test system: SN12C
OVCAR-3 = test system: OVCAR-3
SK-MEL-2 = test system: SK-MEL-2
MDA-MB-231 = test system: MDA-MB-231
UACC-62 = test system: UACC-62
SF-539 = test system: SF-539
MDA-MB-435 = test system: MDA-MB-435
NCI-H522 = test system: NCI-H522

With `Cc1c(NC(=O)CCCl)c(=O)oc2c(C)c3occc(=O)c3cc12` the GI50 (HCC 2998) was > 100 µM (inactive), the GI50 (HCT-116) was 92.7 µM (inactive) and the GI50 (MDA-N) was 47.9 µM (inactive). For the same molecule, the GI50 (A549) was > 100 µM (inactive), the GI50 (TK-10) was 49.2 µM (inactive) and the GI50 (MCF7) was 67.5 µM (inactive). For the same molecule, the GI50 (SNB-75) was 42.2 µM (inactive), the GI50 (RXF 393) was 33.5 µM (inactive) and the GI50 (ACHN) was 45.5 µM (inactive). For the same molecule, the GI50 (NCI-H23) was 94.4 µM (inactive), the GI50 (NCI/ADR-RES) was > 100 µM (inactive) and the GI50 (HOP-92) was 28.9 µM (inactive). The GI50 (T47D) was 77.4 µM (inactive), the GI50 (DU-145) was > 100 µM (inactive) and the GI50 (M14) was 50.8 µM (inactive). The GI50 (IGROV-1) was 97.5 µM (inactive), the GI50 (SK-OV-3) was 86.9 µM (inactive) and the GI50 (A498) was 19.7 µM (inactive). For the same molecule, the GI50 (SW-620) was 87.7 µM (inactive), the GI50 (SK-MEL-28) was 53 µM (inactive) and the GI50 (UO-31) was 36.1 µM (inactive). For the same molecule, the GI50 (SF-295) was 33 µM (inactive), the GI50 (RPMI-8226) was 81.7 µM (inactive) and the GI50 (786-0) was > 100 µM (inactive). For the same molecule, the GI50 (MOLT-4) was 76.9 µM (inactive), the GI50 (KM12) was > 100 µM (inactive) and the GI50 (CCRF-CEM) was 30.9 µM (inactive). The GI50 (U-251) was 67.6 µM (inactive), the GI50 (CAKI-1) was 42.1 µM (inactive) and the GI50 (NCI-H460) was 51.2 µM (inactive). The GI50 (Hs-578T) was 35.5 µM (inactive), the GI50 (OVCAR-5) was > 100 µM (inactive) and the GI50 (HT-29) was > 100 µM (inactive). For the same molecule, the GI50 (HL-60) was 57.7 µM (inactive), the GI50 (OVCAR-4) was > 100 µM (inactive) and the GI50 (Malme-3M) was 23.5 µM (inactive). The GI50 (SK-MEL-5) was 36.8 µM (inactive), the GI50 (SF-268) was > 100 µM (inactive) and the GI50 (SR) was 80.4 µM (inactive). The GI50 (UACC-257) was 60.1 µM (inactive), the GI50 (SNB-19) was 75.5 µM (inactive) and the GI50 (OVCAR-8) was > 100 µM (inactive). The GI50 (HCT-15) was 62.4 µM, the GI50 (COLO 205) was > 100 µM (inactive) and the GI50 (EKVX) was > 100 µM (inactive). The GI50 (HOP-62) was > 100 µM (inactive) and the GI50 (K562) was 66.4 µM (inactive).

In the case of `CCOC(=O)[C@@]12C3C=CC(CC3)[C@]1(C(=O)c1ccccc1)C(=O)C(=O)N2c1ccccc1` (stereo partly specified), the GI50 (HCC 2998) is reported as > 100 µM (inactive), the GI50 (HCT-116) is reported as > 100 µM (inactive) and the GI50 (MDA-N) is reported as > 100 µM (inactive). The GI50 (A549) was > 100 µM (inactive), the GI50 (PC-3) was > 100 µM (inactive) and the GI50 (TK-10) was > 100 µM (inactive). For the same molecule, the GI50 (MCF7) was > 100 µM (inactive), the GI50 (RXF 393) was > 100 µM (inactive) and the GI50 (ACHN) was > 100 µM (inactive). The GI50 (NCI-H23) was > 100 µM (inactive), the GI50 (NCI/ADR-RES) was > 100 µM (inactive) and the GI50 (HOP-92) was > 100 µM (inactive). The GI50 (SN12C) was > 100 µM (inactive), the GI50 (T47D) was > 100 µM (inactive) and the GI50 (OVCAR-3) was > 100 µM (inactive). For the same molecule, the GI50 (DU-145) was > 100 µM (inactive), the GI50 (M14) was > 100 µM (inactive) and the GI50 (SK-OV-3) was > 100 µM (inactive). For the same molecule, the GI50 (SK-MEL-2) was > 100 µM (inactive), the GI50 (A498) was > 100 µM (inactive) and the GI50 (SW-620) was > 100 µM (inactive). The GI50 (SK-MEL-28) was > 100 µM (inactive), the GI50 (UO-31) was > 100 µM (inactive) and the GI50 (MDA-MB-231) was > 100 µM (inactive). For the same molecule, the GI50 (UACC-62) was 97.3 µM (inactive), the GI50 (SF-295) was > 100 µM (inactive) and the GI50 (SF-539) was > 100 µM (inactive). The GI50 (RPMI-8226) was > 100 µM (inactive), the GI50 (786-0) was > 100 µM (inactive) and the GI50 (MOLT-4) was > 100 µM (inactive). For the same molecule, the GI50 (KM12) was > 100 µM (inactive), the GI50 (U-251) was > 100 µM (inactive) and the GI50 (CAKI-1) was > 100 µM (inactive). The GI50 (NCI-H460) was > 100 µM (inactive), the GI50 (OVCAR-5) was > 100 µM (inactive) and the GI50 (HT-29) was > 100 µM (inactive). For the same molecule, the GI50 (OVCAR-4) was > 100 µM (inactive), the GI50 (Malme-3M) was > 100 µM (inactive) and the GI50 (SK-MEL-5) was > 100 µM (inactive). For the same molecule, the GI50 (SF-268) was > 100 µM (inactive), the GI50 (MDA-MB-435) was > 100 µM (inactive) and the GI50 (SR) was > 100 µM (inactive). For the same molecule, the GI50 (SNB-19) was > 100 µM (inactive), the GI50 (OVCAR-8) was > 100 µM (inactive) and the GI50 (HCT-15) was over 100 µM. The GI50 (COLO 205) was > 100 µM (inactive), the GI50 (NCI-H522) was > 100 µM (inactive) and the GI50 (HOP-62) was > 100 µM (inactive). The GI50 (K562) was > 100 µM (inactive).

— ChEMBL document CHEMBL1201862, “PubChem BioAssay data set” (2004)
